Results on 28 compounds are retold here after ChEMBL document CHEMBL4699540, “Discovery and structure activity relationships of 7-benzyl triazolopyridines as stable, selective, and reversible inhibitors of myeloperoxidase” (Bioorg Med Chem, 2020).

Bounds are passed on as bounds.

Data set [1] in a line: Metabolic stability in mouse liver microsomes assessed as compound remaining. Type of data set: ADME, Microsome. In general terms: Microsomes from liver hold many membrane-bound enzymes, among them those of drug oxidation.
A short description of data set [2]: Permeability of compound at pH 7.4 by PAMPA assay. Type of data set: ADME. Particulars: read-out: permeability; call rule not given here.
A short description of data set [3]: Metabolic stability in human liver microsomes assessed as compound remaining. The class given is ADME, Microsome.
Data set [4] addresses T1, Myeloperoxidase (Homo sapiens, UniProt P05164).
T1 sequence (P05164 whole entry): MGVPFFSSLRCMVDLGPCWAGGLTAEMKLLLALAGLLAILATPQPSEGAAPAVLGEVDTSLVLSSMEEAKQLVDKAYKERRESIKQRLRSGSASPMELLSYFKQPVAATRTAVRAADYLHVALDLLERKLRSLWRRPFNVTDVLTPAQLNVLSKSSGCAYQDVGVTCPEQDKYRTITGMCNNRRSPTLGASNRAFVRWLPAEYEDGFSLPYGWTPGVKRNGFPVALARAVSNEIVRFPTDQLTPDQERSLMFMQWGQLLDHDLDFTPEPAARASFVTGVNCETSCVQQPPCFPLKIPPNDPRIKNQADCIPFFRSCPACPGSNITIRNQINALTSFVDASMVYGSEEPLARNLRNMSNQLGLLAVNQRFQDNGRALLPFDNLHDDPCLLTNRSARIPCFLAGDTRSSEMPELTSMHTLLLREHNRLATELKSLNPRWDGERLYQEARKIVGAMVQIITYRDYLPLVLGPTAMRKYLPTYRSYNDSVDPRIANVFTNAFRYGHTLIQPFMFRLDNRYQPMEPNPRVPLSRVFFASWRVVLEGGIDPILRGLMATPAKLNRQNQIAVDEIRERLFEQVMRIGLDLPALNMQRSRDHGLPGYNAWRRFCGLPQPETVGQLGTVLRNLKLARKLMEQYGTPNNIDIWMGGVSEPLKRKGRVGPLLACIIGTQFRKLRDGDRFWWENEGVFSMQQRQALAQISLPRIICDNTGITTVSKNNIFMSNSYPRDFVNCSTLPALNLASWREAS
In words: Inhibition of recombinant human MPO incubated for 10 mins by amplex red dye based assay.

Data set [5] deals with T1, Myeloperoxidase. As to the kind of experiment: Inhibition of recombinant human MPO incubated for 10 mins in presence of 240 mM NaCl and 10 uM H2O2 by aminophenyl fluorescein based assay.
Data set [6] is described as follows: Dissociation constant, pKa of the compound. The class given is physicochemical.
Data set [7] deals with T2, Thyroid peroxidase (Homo sapiens, UniProt P07202).
T2 sequence (P07202 whole entry): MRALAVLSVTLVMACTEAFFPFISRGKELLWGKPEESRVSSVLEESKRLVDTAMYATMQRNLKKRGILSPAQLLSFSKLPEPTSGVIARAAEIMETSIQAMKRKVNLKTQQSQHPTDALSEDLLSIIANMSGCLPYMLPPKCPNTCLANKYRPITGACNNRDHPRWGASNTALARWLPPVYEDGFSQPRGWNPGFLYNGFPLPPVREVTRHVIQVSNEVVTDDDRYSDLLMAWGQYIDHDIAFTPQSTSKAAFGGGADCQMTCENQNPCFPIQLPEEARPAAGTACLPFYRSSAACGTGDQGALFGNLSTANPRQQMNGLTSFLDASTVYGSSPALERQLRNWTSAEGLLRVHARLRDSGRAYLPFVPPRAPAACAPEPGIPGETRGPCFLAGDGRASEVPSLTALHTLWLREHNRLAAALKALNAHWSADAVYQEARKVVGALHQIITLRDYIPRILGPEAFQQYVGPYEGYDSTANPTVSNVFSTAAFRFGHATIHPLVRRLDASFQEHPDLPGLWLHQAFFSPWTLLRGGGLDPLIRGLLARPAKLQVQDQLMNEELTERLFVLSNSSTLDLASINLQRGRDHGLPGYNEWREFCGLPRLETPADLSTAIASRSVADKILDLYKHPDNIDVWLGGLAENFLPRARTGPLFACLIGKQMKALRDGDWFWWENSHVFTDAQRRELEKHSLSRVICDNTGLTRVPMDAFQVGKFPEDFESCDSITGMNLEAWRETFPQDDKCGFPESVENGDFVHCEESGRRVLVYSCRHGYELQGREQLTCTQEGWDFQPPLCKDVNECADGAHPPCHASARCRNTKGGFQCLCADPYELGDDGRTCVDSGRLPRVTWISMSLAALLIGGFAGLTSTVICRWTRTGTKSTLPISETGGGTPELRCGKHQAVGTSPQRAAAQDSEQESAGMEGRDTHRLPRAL
In words: Inhibition of TPO (unknown origin) using 3-iodo tyrosine as substrate incubated for 10 mins.

Data set [8] concerns the target Cytochrome P450 3A4 (Homo sapiens, UniProt P08684). In words: Inhibition of CYP3A4 (unknown origin). Type of data set: ADME.
A short description of data set [9]: Stability of compound at pH 1 assessed as half life. The settings on record: buffer. The class given is physicochemical.
The target of data set [10] is T3, Methylated-DNA--protein-cysteine methyltransferase (Homo sapiens, UniProt P16455).
T3 sequence (P16455 whole entry): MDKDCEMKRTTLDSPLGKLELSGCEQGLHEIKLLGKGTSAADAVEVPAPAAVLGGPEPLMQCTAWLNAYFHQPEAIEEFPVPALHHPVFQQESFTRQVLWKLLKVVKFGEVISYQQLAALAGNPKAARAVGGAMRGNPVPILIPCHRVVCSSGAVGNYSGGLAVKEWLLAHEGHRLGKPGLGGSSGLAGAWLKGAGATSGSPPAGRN
As to the kind of experiment: Inhibition of human MGMT using 06-benzylguanine as substrate incubated for 30 mins by LC/MS analysis. Particulars: 0.5 h.

Chain of Cytochrome P450 3A4 (P08684 whole entry): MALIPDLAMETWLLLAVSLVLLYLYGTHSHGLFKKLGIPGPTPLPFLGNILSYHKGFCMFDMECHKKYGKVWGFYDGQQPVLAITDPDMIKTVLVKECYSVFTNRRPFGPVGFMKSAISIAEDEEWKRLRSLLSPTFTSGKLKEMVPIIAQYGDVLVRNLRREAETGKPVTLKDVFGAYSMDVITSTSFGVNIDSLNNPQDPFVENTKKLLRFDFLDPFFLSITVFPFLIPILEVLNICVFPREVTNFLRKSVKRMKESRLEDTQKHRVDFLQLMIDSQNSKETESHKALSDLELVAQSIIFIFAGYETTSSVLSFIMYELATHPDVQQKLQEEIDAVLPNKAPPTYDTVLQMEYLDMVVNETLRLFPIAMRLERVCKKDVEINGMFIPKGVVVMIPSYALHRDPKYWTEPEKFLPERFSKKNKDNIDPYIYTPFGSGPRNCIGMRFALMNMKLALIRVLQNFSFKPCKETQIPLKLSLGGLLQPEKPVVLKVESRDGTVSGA

With `Nc1cc([C@H](CCN[C@@H]2CC[C@@H](c3ccccc3)C2)c2ccccc2)c2nn[nH]c2n1`, the Stabilty is reported as 45% in data set [1] and 73% in data set [3]. Also, in [2], the Papp was found to be 2.4 ×10⁻⁶ cm/s.
Turning to `Nc1cc([C@H](CCCN2CCC(c3ccccc3)CC2)c2ccccc2)c2nn[nH]c2n1`, the Papp in data set [2] was determined as 1.3 ×10⁻⁶ cm/s.
Take `Nc1nc(NCc2ccccc2)c2nn[nH]c2n1`: the 50% inhibitory concentration (IC50) in data set [4] and in data set [5] was greater than 40000 nM throughout. Besides, the pKa – broadly, the negative logarithm of the acid dissociation constant – in [6] is 7.8.
In the case of `Nc1cc([C@H](CCN[C@H]2CCc3ccccc32)c2ccccc2)c2nn[nH]c2n1`, the results for the Stabilty in data set [1] and in data set [3] were 51% and 65%, respectively. The Papp in data set [2] worked out at 6.5 ×10⁻⁶ cm/s.
In the case of `Nc1cc([C@H](CCOCc2ccccc2)c2ccccc2)c2nn[nH]c2n1`, the Stabilty in data set [1] is given as 1%; in [3], 2%. Moreover, the Papp in [2] was 73 ×10⁻⁶ cm/s. The IC50 (as a rule, the concentration at which inhibition is half-maximal) in data set [7] was determined as 6300 nM; in data set [8], 2600 nM.
Turning to `Nc1cc(Cc2ccccc2F)c2nn[nH]c2n1`, the IC50 in [4] was 46 nM; in data set [5], 32 nM.
`Nc1cc([C@H](CCNCc2ccccc2C(F)(F)F)c2ccccc2)c2nn[nH]c2n1`: the results for the Stabilty in data set [1] and in data set [3] were 3% and 2%, respectively. Moreover, the Papp in data set [2] is 23.7 ×10⁻⁶ cm/s.
On to `Nc1cc(Cc2cccc(-c3ccccc3)c2)c2nn[nH]c2n1`, for which the IC50 is 77 nM in data set [4] and 127 nM in data set [5].
For `CN(Cc1ccccc1)c1nc(N)nc2[nH]nnc12`, in that order: greater than 40000 nM and greater than 40000 nM.
For the compound `Nc1nc(Cc2ccccc2)c2nn[nH]c2n1`, in [9], the half-life (in general, how long it takes for the measured level to halve) is 16 h. The results for the IC50 in data set [4] and in data set [5] were 428 nM and 110 nM, respectively. In data set [6], this compound registered a pKa of 6.3. In addition, the “inhibition (INH)” value in [10] is on record as “Not Active”.
As for `Nc1cc(Cc2cccc(C(F)(F)F)c2)c2nn[nH]c2n1`, the IC50 in [4] stood at 1430 nM; in data set [5], 683 nM.
`Nc1cc(C(CCNC23CCC(c4ccccc4)(CC2)OC3)c2ccccc2)c2nn[nH]c2n1` (centres undefined): the Papp in data set [2] was 10.4 ×10⁻⁶ cm/s.
Same read-out and setting: with `Nc1cc([C@H](CCN(CCF)C23CCC(c4ccccc4)(CC2)CC3)c2ccccc2)c2nn[nH]c2n1` the figure was 21.7 ×10⁻⁶ cm/s.
Take `Nc1cc([C@H](CCN[C@H]2C[C@@H](c3ccccc3)c3ccccc32)c2ccccc2)c2nn[nH]c2n1`: the figures for the Stabilty in [1] and in data set [3] were 28% and 35%, respectively.
On to `Nc1cc(Cc2cccc(Cl)c2)c2nn[nH]c2n1`, for which the results for the IC50 in [4] and in data set [5] were 32 nM and 16 nM, respectively.
As for `Nc1cc([C@H](CCN[C@@H]2CC[C@@H](c3ccccc3)OC2)c2ccccc2)c2nn[nH]c2n1`, in [2], the Papp was 3.7 ×10⁻⁶ cm/s.
On to `COC(=O)c1cccc(Cc2cc(N)nc3[nH]nnc23)c1`, for which the 50% inhibitory concentration (IC50) is 17 nM in data set [4] and 29 nM in data set [5].
`Nc1cc([C@H](CCNCc2ccccc2)c2ccccc2)c2nn[nH]c2n1`: the Stabilty came out at 85% in data set [1] and 88% in data set [3]. Besides, the Papp in data set [2] amounted to 4.3 ×10⁻⁶ cm/s. The concentration for half-maximal inhibition (IC50) in data set [7] was greater than 50000 nM; in [8] it was 12000 nM.
In the case of `Nc1cc([C@H](CCN[C@H]2CC[C@H](c3ccccc3)CC2)c2ccccc2)c2nn[nH]c2n1`, the Stabilty in data set [1] came out at 79%; in data set [3] it was 80%.
Consider `Nc1nc(CCc2ccccc2)c2nn[nH]c2n1`, for which the IC50 in data set [4] was 9840 nM; in data set [5], 7450 nM.
As to `Nc1cc([C@H](CCNC23CCC(c4ccccc4)(CC2)CC3)c2ccccc2)c2nn[nH]c2n1`, the Stabilty in data set [1] is recorded as 85%; in data set [3], 91%. The Papp in data set [2] was 1.7 ×10⁻⁶ cm/s.
In the case of `CN(CC[C@H](c1ccccc1)c1cc(N)nc2[nH]nnc12)C12CCC(c3ccccc3)(CC1)CC2`, the Papp in [2] amounted to 0.1 ×10⁻⁶ cm/s.
On to `Nc1cc([C@H](CCCc2ccccc2)c2ccccc2)c2nn[nH]c2n1`, for which the Stabilty in data set [1] turned out to be 1%; in [3], 31%. Besides, the Papp in data set [2] was determined as 125 ×10⁻⁶ cm/s. For the same compound, 1800 nM corresponded to half-maximal inhibition in data set [8] (IC50).
For `Nc1cc([C@H](Cc2ccccc2)c2ccccc2)c2nn[nH]c2n1`, the Stabilty is 53% in data set [1] and 84% in data set [3]. For the same compound, in data set [2], the Papp was 64.8 ×10⁻⁶ cm/s. Besides, in data set [8], half-maximal inhibition (IC50) was put at 3400 nM.
Take `Nc1cc(Cc2ccc3ccccc3c2)c2nn[nH]c2n1`: the IC50 worked out at 188 nM in data set [4] and 57 nM in data set [5].
For `Nc1cc(OCc2ccccc2)c2nn[nH]c2n1`, in [9], the half-life is greater than 100 h. Moreover, the “inhibition (INH)” value in data set [10] is listed as “Active”.
As to `Nc1cc(Cc2ccc(Cl)cc2)c2nn[nH]c2n1`, the IC50 was found to be 9300 nM in data set [4] and 1700 nM in data set [5].
As for `Nc1cc([C@H](CCN[C@@H]2CC[C@@H](c3ccccc3)c3ccccc32)c2ccccc2)c2nn[nH]c2n1`, the Stabilty is listed as 10% in data set [1] and 9% in data set [3].
